Experiment [1] addresses T1, VEGFR2 (Homo sapiens, UniProt P35968). The experiment is described as follows: Kinase inhibition, Mobility Shift Assay/IMAP, VEGFR2. The experiment is classed as biochemical. Also on record: purchased Carna 08-191. In a few lines: (§1)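 Substrate conversion (phosphorylated vs non-phosphorylated) read by mobility shift on Caliper EZ Reader II and converted to % inhibition relative to no-enzyme and DMSO controls. IC50 fitted from % inhibition versus log compound concentration.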
Target sequence in this assay (P35968 790-1356 limits assumed): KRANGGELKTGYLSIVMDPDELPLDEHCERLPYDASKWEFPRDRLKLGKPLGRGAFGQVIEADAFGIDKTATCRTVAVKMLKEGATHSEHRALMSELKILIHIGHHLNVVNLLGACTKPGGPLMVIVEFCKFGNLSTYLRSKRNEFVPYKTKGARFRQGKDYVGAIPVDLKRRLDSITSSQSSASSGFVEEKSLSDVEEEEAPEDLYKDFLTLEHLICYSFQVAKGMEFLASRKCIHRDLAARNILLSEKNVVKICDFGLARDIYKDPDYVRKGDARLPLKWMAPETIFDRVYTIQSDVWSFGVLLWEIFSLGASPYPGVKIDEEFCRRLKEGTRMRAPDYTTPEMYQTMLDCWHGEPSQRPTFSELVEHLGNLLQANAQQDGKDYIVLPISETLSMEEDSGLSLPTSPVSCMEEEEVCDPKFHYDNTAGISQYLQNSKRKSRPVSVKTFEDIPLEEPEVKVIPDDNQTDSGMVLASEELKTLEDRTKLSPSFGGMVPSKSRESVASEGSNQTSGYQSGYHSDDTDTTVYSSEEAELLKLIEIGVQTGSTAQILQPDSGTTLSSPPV

Another experiment concerns the target T2, EGFR (Homo sapiens, UniProt P00533).
T2 construct: purchased Carna 08-115
Description: Kinase inhibition, Mobility Shift Assay/IMAP, EGFR. The experiment is classed as biochemical. In a few lines: as §1

The next experiment deals with HUVEC cells. The experiment is described as follows: Inhibition of VEGF-induced HUVEC cell proliferation, CellTiter Glo. The class given is cell-based. The note with it: Homo sapiens, 20 ng/ml VEGF, 72 hours. In a few lines:
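HUVEC (4000/well) serum-starved overnight in RPMI-1640 with 5% FBS, compound added 1 h before VEGF (20 ng/ml final in controls). After 72 h at 37 °C, viable cells were quantified by CellTiter-Glo luminescence; % inhibition fitted against log concentration, DMSO+VEGF wells as high control and cell-free wells as low.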
Background: In ATP-based viability assays light output follows the ATP content of the culture.

The target in experiment [2] is T1, VEGFR2. Description: Inhibition of VEGF-induced VEGFR2 autophosphorylation (pVEGFR2) in HUVEC cells, ELISA. The class given is cell-based. Details: endogenous in cells; host or cells: HUVEC. The following applies: 50 ng/mL human VEGF, compound 1 h. The source says: Vascular endothelial growth factor receptor 2 (VEGFR2) is a primary receptor for VEGF-induced endothelial cell signaling. After ligand binding, VEGFR2 is autophosphorylated and activated. The main function of signaling from VEGFR2 is to induce vascularization during development and after tissue injury, and to bypass blocked blood vessels. Pathologically, VEGF and VEGFR2 are involved in tumor angiogenesis and vascular leakage. They are considered to be main participants in many different cancers and ocular diseases that accompany pathological neovascularization. This assay measured the ability of the compounds to inhibit VEGF-induced VEGFR2 autophosphorylation (pVEGFR2) in HUVEC cells by using ELISA.
Culture cells in a cell culture flask to reach a fusion degree of 60%-80% before cell inoculation. Dilute the cell suspension to […] with a pre-warmed complete medium. Add 80 μL of the cell suspension to all wells of a 96-well cell plate (Corning-3599); and incubate the plate overnight at 37° C. in the presence of 5% CO2. Dissolve the compound powder to 10 mM with DMSO and store it in a nitrogen cabinet. Compound dilution plate: Add a reference compound Ponatinib or a compound to be tested to a 96 V-well plate (Axygen-WIPP 2280) at concentrations achieved as follows: performing 3-fold gradient dilution starting from 5 mM (5 μL of 10 mM compound solution plus 5 μL of DMSO) for a total of 8 concentration points. […] Transfer 20 μL of the diluted compound from the intermediate plate to a cell plate. Then, incubate the cell plate for 1 h at 37° C. in the presence of 5% CO2. After the compound was treated for 1 h, add 25 μL of 250 ng/ml human VEGF at a final concentration of 50 ng/mL to a 96-well plate; and incubate the plate for 5 min at 37° C. in the presence of 5% CO2, centrifuge the plate for 10 min at 3,000 rpm, remove the medium and wash the cells once with 300 μL of pre-chilled DPBS per well. Then, centrifuge the plate for 10 min at 4,000 rpm, remove DPBS, and add 110 μL of pre-chilled 1× cell lysis buffer per well to the 96-well plate. Shake the plate for 40 min at 4° C. Then, freeze the plate in a refrigerator at −80° C. On the next day, remove the plate from the refrigerator at −80° C., thaw the plate, centrifuge the plate for 10 min at 3500 rpm, and add 100 μL of the supernatant per well to an ELISA plate. Seal the plate and incubate it for 2 h at 37° C. Wash the wells 4 times with 1× wash buffer. Add 100 μL of recombinant detection antibody per well. Seal the plate, incubate the plate for 1 h at 37° C., and repeat the step of plate washing. Add 100 μL of secondary antibody per well. Seal the plate, incubate the plate for 30 min at 37° C., and repeat the step of plate washing. Add 100 μL of TMB (protected from light) per well. Seal the plate, incubate the plate for 30 min at 37° C., and add 100 μL of the stop solution per well. Gently shake for 30 sec, measure the absorbance with a SpectraMax® 340 PC 384 Absorbance Microplate Reader within 30 min, and read an optical density value at 450 nm. Conduct data analysis using XL Fit software:
Conduct curve fitting using the 4 Parameter Logistic Model or Sigmoidal Dose-Response Model to obtain IC50 values.
X indicates the log value of compound concentration, Y indicates the inhibition rate (% inhibition), Top indicates the readout of the negative control wells, and Bottom indicates the readout of the positive control well.
Target sequence in this assay (P35968 20-1356): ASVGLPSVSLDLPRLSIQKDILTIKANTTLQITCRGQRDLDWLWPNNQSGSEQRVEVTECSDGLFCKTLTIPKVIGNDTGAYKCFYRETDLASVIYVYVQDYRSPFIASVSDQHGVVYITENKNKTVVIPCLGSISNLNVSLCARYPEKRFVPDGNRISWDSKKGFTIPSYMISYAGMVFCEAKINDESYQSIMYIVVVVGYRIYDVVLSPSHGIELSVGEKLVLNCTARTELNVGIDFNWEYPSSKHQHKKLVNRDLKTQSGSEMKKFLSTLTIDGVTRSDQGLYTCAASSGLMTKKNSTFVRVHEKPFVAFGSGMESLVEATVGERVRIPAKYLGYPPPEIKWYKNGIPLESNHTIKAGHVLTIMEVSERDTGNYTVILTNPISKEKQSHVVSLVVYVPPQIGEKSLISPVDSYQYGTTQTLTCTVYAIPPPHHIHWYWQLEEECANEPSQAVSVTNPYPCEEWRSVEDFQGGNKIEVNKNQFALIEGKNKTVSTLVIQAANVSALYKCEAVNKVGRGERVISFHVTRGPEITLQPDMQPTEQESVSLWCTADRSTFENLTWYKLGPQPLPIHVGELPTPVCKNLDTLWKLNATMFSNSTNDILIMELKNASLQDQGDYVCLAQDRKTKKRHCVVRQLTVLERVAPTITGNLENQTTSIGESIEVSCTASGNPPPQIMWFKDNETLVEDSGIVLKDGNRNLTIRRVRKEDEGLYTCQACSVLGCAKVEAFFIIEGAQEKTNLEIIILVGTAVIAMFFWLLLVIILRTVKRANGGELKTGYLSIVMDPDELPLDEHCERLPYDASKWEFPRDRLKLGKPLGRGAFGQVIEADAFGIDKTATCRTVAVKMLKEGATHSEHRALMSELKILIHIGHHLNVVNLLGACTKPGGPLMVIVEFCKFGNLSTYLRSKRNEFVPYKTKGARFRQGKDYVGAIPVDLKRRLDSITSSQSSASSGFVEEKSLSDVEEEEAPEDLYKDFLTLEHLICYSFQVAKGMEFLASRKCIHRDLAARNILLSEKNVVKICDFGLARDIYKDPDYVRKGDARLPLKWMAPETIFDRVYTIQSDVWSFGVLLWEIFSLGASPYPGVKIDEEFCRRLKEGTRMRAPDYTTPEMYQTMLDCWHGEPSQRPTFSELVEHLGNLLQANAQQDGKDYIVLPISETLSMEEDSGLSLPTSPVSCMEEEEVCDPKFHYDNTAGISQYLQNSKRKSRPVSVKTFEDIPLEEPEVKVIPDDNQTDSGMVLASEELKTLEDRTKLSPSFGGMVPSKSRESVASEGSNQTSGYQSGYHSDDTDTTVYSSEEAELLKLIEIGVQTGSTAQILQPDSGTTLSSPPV
A general note: In an ELISA, binding on a coated surface is turned into a signal by an enzyme label.

Structures are written as SMILES.

Drawing on US20260217698A1 (BEYANG THERAPEUTICS CO., LTD., priority 2022, published 2026), this text covers IC50 for seven compounds.

Broadly, the IC50 is the concentration that inhibits the measured activity by half.

T2 sequence (P00533 669-1210 limits assumed): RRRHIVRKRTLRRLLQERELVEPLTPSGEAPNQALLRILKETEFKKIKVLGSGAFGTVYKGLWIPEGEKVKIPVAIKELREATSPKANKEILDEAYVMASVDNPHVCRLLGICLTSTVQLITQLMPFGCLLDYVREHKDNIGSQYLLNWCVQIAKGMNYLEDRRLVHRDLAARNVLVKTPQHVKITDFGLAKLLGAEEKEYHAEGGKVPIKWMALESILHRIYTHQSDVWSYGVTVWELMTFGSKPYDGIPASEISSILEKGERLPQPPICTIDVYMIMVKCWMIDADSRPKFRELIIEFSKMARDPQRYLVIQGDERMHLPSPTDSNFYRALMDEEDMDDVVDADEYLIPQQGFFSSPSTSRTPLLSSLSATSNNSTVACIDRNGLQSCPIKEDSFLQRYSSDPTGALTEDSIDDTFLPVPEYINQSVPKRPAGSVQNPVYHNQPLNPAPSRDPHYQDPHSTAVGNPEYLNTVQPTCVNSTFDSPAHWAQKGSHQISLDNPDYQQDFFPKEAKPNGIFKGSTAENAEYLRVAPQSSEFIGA

For the compound `CN1CCN(CCCNC(=O)Nc2snc(OCc3cc(C(=O)NC4CC4)ccc3F)c2C(N)=O)CC1` [Compound T118, 3-[[5-(cyclopropylcarbamoyl)-2-fluoro-phenyl]methoxy]-5-[3-(4-methylpiperazin-1-yl)propylcarbamoylamino]isothiazole-4-carboxamide], the IC50 at VEGFR2 [1] amounted to 1.15 nM; at EGFR it was 8960 nM; with HUVEC cells, 39 nM; at VEGFR2 [2], 48.2 nM.
For the compound `NC(=O)c1c(OCc2cc(C(=O)NC3CC3)ccc2F)nsc1NC(=O)NCCCCN1CCCC1` [Compound T087, 3-[[5-(cyclopropylcarbamoyl)-2-fluoro-phenyl]methoxy]-5-(4-pyrrolidin-1-ylbutylcarbamoylamino)isothiazole-4-carboxamide], the half-inhibitory concentration (IC50) on VEGFR2 [1] was found to be 1.66 nM; at EGFR, 15200 nM; in the experiment with HUVEC cells, 45.4 nM; on VEGFR2 [2], 30 nM.
Taken in the same sequence, the figures for `NC(=O)c1c(OCc2c(F)ccc(C(=O)NC3CC3)c2F)nsc1NC(=O)NCCCCN1CCCC1` [Compound T124, 3-[[3-(cyclopropylcarbamoyl)-2,6-difluoro-phenyl]methoxy]-5-(4-pyrrolidin-1-ylbutylcarbamoylamino)isothiazole-4-carboxamide] were 2.2 nM, over 60000 nM, 43.6 nM and 16.2 nM.
In the case of `NC(=O)c1c(OCc2cc3c(cc2F)CCO3)nsc1NC(=O)NCCCCN1CC[C@@H](O)C1` [Compound T091, 3-[(5-fluoro-2,3-dihydrobenzofuran-6-yl)methoxy]-5-[4-[(3R)-3-hydroxypyrrolidin-1-yl]butylcarbamoylamino] isothiazole-4-carboxamide], the half-inhibitory concentration (IC50) at VEGFR2 [1] is 3.03 nM; on EGFR, 9890 nM; in the experiment on HUVEC cells, 36 nM; on VEGFR2 [2], 87 nM.
For `CN1CCN(CCCNC(=O)Nc2snc(OCc3cc4c(cc3F)CCO4)c2C(N)=O)CC1` [Compound T101, 3-[(5-fluoro-2,3-dihydrobenzofuran-6-yl)methoxy]-5-[3-(4-methylpiperazin-1-yl)propylcarbamoylamino] isothiazole-4-carboxamide] the same measures were 4.85 nM, 9160 nM, 48.6 nM and 103 nM.
For the compound `NC(=O)c1c(OCc2cc(C(=O)NC3CC3)ccc2Cl)nsc1NC(=O)NCCCCN1CCCC1` [Compound T123, 3-[[2-chloro-5-(cyclopropylcarbamoyl)phenyl]methoxy]-5-(4-pyrrolidin-1-ylbutylcarbamoylamino)isothiazole-4-carboxamide], the IC50 on VEGFR2 [1] was determined as 0.63 nM; on EGFR, 26900 nM; with HUVEC cells, 17.1 nM; on VEGFR2 [2], 0.78 nM.
For `NC(=O)c1c(OCc2cc(C(=O)NC3CC3)ccc2F)nsc1NC(=O)NCCCN1CC[C@H](F)C1` [Compound T116, 3-[[5-(cyclopropylcarbamoyl)-2-fluoro-phenyl]methoxy]-5-[3-[(3S)-3-fluoropyrrolidin-1-yl]propylcarbamoylamino]isothiazole-4-carboxamide], the IC50 at VEGFR2 [1] came out at 1.14 nM; at EGFR, 18000 nM; with HUVEC cells it was 21 nM; against VEGFR2 [2] it was 61 nM.
